{
  "source": "patent US20210038579A1",
  "about": "“Treatment Of Patients With Classic Fabry Disease” (Amicus Therapeutics, Inc., priority 2018, published 2021)",
  "assay_in_all_cases": "HEK assay: α-Gal A activity in HEK-293 cell lysate with migalastat",
  "assay_type_in_all_cases": "cell-based",
  "key": {"[1]": {"target": "T1, α-Gal A mutant form p.Arg112His (c.335 G > A) (Homo sapiens, UniProt P06280, R112H)", "T1 construct": "expressed in transfected cells; host or cells: HEK-293", "T1 sequence (P06280 32-429 R112H)": "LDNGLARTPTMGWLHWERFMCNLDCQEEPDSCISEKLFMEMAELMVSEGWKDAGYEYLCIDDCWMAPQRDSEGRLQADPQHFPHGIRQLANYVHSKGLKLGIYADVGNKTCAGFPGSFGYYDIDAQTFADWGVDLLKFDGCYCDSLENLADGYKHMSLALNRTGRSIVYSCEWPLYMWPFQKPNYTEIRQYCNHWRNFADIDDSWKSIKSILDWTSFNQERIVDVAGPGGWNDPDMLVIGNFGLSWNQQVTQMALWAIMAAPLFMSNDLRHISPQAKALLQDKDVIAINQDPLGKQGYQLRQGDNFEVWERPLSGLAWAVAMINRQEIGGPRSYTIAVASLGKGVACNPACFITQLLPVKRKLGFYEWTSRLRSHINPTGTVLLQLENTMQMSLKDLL", "protocol": "(§1) Such mutations are also referred to herein as “HEK assay amenable” mutations.\n(§2) In this assay, cDNA constructs are created. The corresponding α-Gal A mutant forms are transiently expressed in HEK-293 cells. Cells are then incubated±migalastat (17 nM to 1 mM) for 4 to 5 days. After, α-Gal A levels are measured in cell lysates using a synthetic fluorogenic substrate (4-MU-α-Gal) or by western blot. This has been done for known disease-causing missense or small in-frame insertion/deletion mutations."}, "[2]": {"target": "T2, α-Gal A mutant form p.Gly325Arg (c.973G > C) (Homo sapiens, UniProt P06280, G325R)", "T2 construct": "expressed in transfected cells; host or cells: HEK-293", "T2 sequence (P06280 32-429 G325R)": "T1 sequence (P06280 32-429 R112H) with H81R, G294R", "protocol": "as §1, §2"}, "[3]": {"target": "T3, α-Gal A mutant form p.Ile270Thr (c.809 T > C) (Homo sapiens, UniProt P06280, I270T)", "T3 construct": "expressed in transfected cells; host or cells: HEK-293", "T3 sequence (P06280 32-429 I270T)": "T1 sequence (P06280 32-429 R112H) with H81R, I239T", "protocol": "as §1, §2"}, "[4]": {"target": "T4, α-Gal A mutant form p.Leu243Phe (c.729 G > C) (Homo sapiens, UniProt P06280, L243F)", "T4 construct": "expressed in transfected cells; host or cells: HEK-293", "T4 sequence (P06280 32-429 L243F)": "T1 sequence (P06280 32-429 R112H) with H81R, L212F", "protocol": "as §1, §2"}, "[5]": {"target": "T5, α-Gal A mutant form p.Pro293Thr (c.877 C > A) (Homo sapiens, UniProt P06280, P293T)", "T5 construct": "expressed in transfected cells; host or cells: HEK-293", "T5 sequence (P06280 32-429 P293T)": "T1 sequence (P06280 32-429 R112H) with H81R, P262T", "protocol": "as §1, §2"}, "[6]": {"conditions": "+10 μM migalastat, HEK-293 cell lysate, mean ± SEM, n = 20"}, "[7]": {"conditions": "HEK293, 10 μM migalastat minus baseline, read-out: Absolute increase at 10 μM (% WT)"}},
  "note": "Changes are numbered by the printed parent chain.",
  "data": [
    {"smiles": "OC[C@H]1NC[C@H](O)[C@@H](O)[C@H]1O", "note": "[migalastat]", "values": [
      {"measurement": "α-Gal A activity at 10 μM (fold over baseline)", "setting": "[1]; 10 μM migalastat", "value": 6.61, "unit": "fold over baseline"},
      {"measurement": "+Migalastat α-Gal A activity", "setting": "[1]; [6]", "value": "5583 ± 215", "unit": "nmol/mg/h"},
      {"measurement": "+Migalastat α-Gal A activity % WT", "setting": "[1]; [6]", "value": "17.4 ± 0.8", "unit": "% WT"},
      {"measurement": "activation at 10 µM", "setting": "[1]; [7]", "value": 14.8, "unit": "%"},
      {"measurement": "α-Gal A activity at 10 μM (fold over baseline)", "setting": "[2]; 10 μM migalastat", "value": 10.17, "unit": "fold over baseline"},
      {"measurement": "+Migalastat α-Gal A activity", "setting": "[2]; [6]", "value": "9244 ± 417", "unit": "nmol/mg/h"},
      {"measurement": "+Migalastat α-Gal A activity % WT", "setting": "[2]; [6]", "value": "26.6 ± 1.4", "unit": "% WT"},
      {"measurement": "activation at 10 µM", "setting": "[2]; [7]", "value": 24, "unit": "%"},
      {"measurement": "α-Gal A activity at 10 μM (fold over baseline)", "setting": "[3]; 10 μM migalastat", "value": 6.73, "unit": "fold over baseline"},
      {"measurement": "+Migalastat α-Gal A activity", "setting": "[3]; [6]", "value": "12416 ± 377", "unit": "nmol/mg/h"},
      {"measurement": "+Migalastat α-Gal A activity % WT", "setting": "[3]; [6]", "value": "42.8 ± 3.0", "unit": "% WT"},
      {"measurement": "activation at 10 µM", "setting": "[3]; [7]", "value": 36.5, "unit": "%"},
      {"measurement": "α-Gal A activity at 10 μM (fold over baseline)", "setting": "[4]; 10 μM migalastat", "value": 5.33, "unit": "fold over baseline"},
      {"measurement": "+Migalastat α-Gal A activity", "setting": "[4]; [6]", "value": "14370 ± 618", "unit": "nmol/mg/h"},
      {"measurement": "+Migalastat α-Gal A activity % WT", "setting": "[4]; [6]", "value": "42.3 ± 1.4", "unit": "% WT"},
      {"measurement": "activation at 10 µM", "setting": "[4]; [7]", "value": 34.4, "unit": "%"},
      {"measurement": "α-Gal A activity at 10 μM (fold over baseline)", "setting": "[5]; 10 μM migalastat", "value": 19.60, "unit": "fold over baseline"},
      {"measurement": "+Migalastat α-Gal A activity", "setting": "[5]; [6]", "value": "4488 ± 327", "unit": "nmol/mg/h"},
      {"measurement": "+Migalastat α-Gal A activity % WT", "setting": "[5]; [6]", "value": "13.3 ± 1.1", "unit": "% WT"},
      {"measurement": "activation at 10 µM", "setting": "[5]; [7]", "value": 12.7, "unit": "%"}
    ]}
  ]
}
